The target in one series is MOR (mu opioid receptor) (Homo sapiens, UniProt P35372). Kind of series: Radioligand binding assay, MOR affinity. Conditions: read-out: MOR Ki (nM ± SEM). As for the experimental part:
(§1) The analogs were evaluated in vivo in an analgesic assay (mouse 55° C. warm-water tail withdrawal assay) for opioid agonist and antagonist activity. Representative analogs were evaluated in a conditioned place preference (CPP) assay for their ability to prevent stress-induced relapse to cocaine-seeking behavior. Further, representative analogs were evaluated for opioid receptor affinity in radioligand binding assays (Table 2).

Series [1] has as its target KOR (kappa opioid receptor) (Homo sapiens, UniProt P41145). Kind of series: Radioligand binding assay, KOR affinity. Conditions: for Ki: read-out: KOR Ki (nM ± SEM); for Selectivity (KOR/MOR): ratio of KOR and MOR Ki. The procedure: as §1
The target in series [2] is T1, kappa opioid receptor (KOR) (Mus musculus, UniProt P33534).
T1 construct: from tissue; host or cells: living mouse (in vivo; CNS)
T1 sequence (P33534 whole entry): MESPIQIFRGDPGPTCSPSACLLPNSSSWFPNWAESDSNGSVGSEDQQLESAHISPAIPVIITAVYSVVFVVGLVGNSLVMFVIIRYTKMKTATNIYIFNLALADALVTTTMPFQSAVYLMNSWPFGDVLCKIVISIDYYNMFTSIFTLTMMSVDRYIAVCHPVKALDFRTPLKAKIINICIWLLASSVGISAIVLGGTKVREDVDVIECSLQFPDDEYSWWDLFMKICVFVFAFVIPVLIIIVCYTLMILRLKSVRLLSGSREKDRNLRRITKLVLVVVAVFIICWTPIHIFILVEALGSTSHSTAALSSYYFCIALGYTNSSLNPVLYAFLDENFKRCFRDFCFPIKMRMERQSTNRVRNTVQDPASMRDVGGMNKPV
Conditions: p.o.; Eans et al., 2013; cited from earlier work.

For series [3], the system named is kappa opioid receptor (KOR). Conditions: cited from earlier work.
Series [4] deals with mice. Conditions: p.o., CPP assay; Eans et al., 2013; cited from earlier work.
The target of series [5] is T1, kappa opioid receptor (KOR). Kind of series: Mouse 55° C. warm-water tail withdrawal assay, opioid antagonist activity (antagonism of KOR agonist U50,488). The format is in vivo. Conditions: for selectivity of opioid antagonism (KOR vs. MOR and DOR agonists): U50,488, morphine, SNC-80; for duration of KOR antagonism of centrally administered U50,488: 30 mg/kg p.o.; for antagonism of centrally (i.c.v.) administered KOR agonist U50,488: peptide given orally. As for the experimental part:
as §1

The test system of series [6] is mice. Description: Mouse 55° C. warm-water tail withdrawal assay, antinociception (opioid agonist activity). In kind it is in vivo. As for the experimental part: as §1
A short description of series [7]: Locomotion following oral administration. The format is in vivo. Conditions: 10 or 30 mg/kg p.o. The source says: (§2) FIGS. 6A-B provides the results of studies on locomotion and respiration following oral administration of JVA-3620.
(§3) FIG. 7A-B provides the results of studies on locomotion and respiration following oral administration of JVA-3628.

Series [8] can be described thus: Respiration following oral administration. In kind it is in vivo. Conditions: 10 or 30 mg/kg p.o.
Source text: as §2, §3

In series [9] the test system is mice. Description: Conditioned place preference (CPP) assay, stress-induced relapse to cocaine-seeking behavior. The following applies: p.o. The format is in vivo, mouse. The procedure:
as §1

Read-outs that look alike come from different tables or passages of the source. Non-standard residues stand in square brackets, D forms with d. Residues, ends and D or L forms follow the SMILES beside them. 2Pal = N[C@@H](Cc1ccccn1)C(=O)O; 3Pal = N[C@@H](Cc1cccnc1)C(=O)O; 4Pal = N[C@@H](Cc1ccncc1)C(=O)O

These results are taken from patent publication US11820835B2, “Cyclic tetrapeptide analogs” (University of Kansas, priority 2018, dated 2023).

For orientation: Ki means a dissociation constant, usually derived from enzyme kinetics or from competition with a known ligand.

Chain of KOR (kappa opioid receptor) (P41145 whole entry): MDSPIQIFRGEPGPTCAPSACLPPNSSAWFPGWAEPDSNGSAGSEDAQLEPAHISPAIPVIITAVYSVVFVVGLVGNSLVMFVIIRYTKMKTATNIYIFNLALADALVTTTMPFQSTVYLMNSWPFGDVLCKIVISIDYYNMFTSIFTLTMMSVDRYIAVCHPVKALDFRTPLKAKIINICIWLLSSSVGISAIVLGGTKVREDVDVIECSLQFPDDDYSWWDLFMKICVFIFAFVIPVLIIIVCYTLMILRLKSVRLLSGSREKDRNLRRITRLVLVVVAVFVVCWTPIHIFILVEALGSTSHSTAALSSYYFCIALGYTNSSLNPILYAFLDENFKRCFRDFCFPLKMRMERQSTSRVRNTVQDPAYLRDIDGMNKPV
Chain of MOR (mu opioid receptor) (P35372 whole entry): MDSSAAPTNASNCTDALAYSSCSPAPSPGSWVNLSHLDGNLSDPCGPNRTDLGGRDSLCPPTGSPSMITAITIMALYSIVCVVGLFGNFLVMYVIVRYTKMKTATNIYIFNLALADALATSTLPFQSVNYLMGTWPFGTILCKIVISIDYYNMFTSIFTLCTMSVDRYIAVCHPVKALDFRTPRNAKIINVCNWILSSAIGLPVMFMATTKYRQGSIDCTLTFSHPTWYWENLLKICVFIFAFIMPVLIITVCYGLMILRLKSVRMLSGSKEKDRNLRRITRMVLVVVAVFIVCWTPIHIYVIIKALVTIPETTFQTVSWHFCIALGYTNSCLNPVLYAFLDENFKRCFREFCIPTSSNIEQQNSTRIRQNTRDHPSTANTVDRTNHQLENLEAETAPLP

Turning to `O=C1N[C@H](Cc2c[nH]c3ccccc23)C(=O)N[C@@H](Cc2ccccc2)C(=O)N2CCC[C@@H]2C(=O)N[C@H]1Cc1c[nH]cn1` [JVA-3623] (cyclo(F[dP]H[dW])), the values for the Ki (on MOR (mu opioid receptor); in [1]) were 366 ± 98 nM and 67.7 ± 9.2 nM, respectively.
As to `O=C1N[C@H](Cc2c[nH]c3ccccc23)C(=O)N[C@@H](Cc2ccccc2)C(=O)N2CCC[C@@H]2C(=O)N[C@H]1Cc1ccccc1` [JVA-2802, cyclo[Phe′-D-Pro-Phe^3-D-Trp^4]] (cyclo(F[dP]F[dW])), in [2], the “oral dose required to significantly antagonize centrally administered U50,488” value is recorded as 30 mg/kg. The duration of action in series [3] (Ross et al., 2012, Eans et al., 2013) was less than 18 h. Further, in series [1], the “Selectivity (KOR/MOR)” value is recorded as 1/12 and the Ki turned out to be 21.8 nM. For the same compound, the “oral dose preventing stress-induced relapse of cocaine-seeking behavior” value with mice [4] was 60 mg/kg.
Turning to [D-Tyr^4]CJ-15,208 [JVA-3669], in series [5] (i.c.v. administration), the KOR antagonism entry is listed as “not KOR antagonist”. Besides, the “antinociception (agonist activity)” value in the series on mice [6] (i.c.v. administration) was “agonist”.
As to `O=C1N[C@H](Cc2c[nH]c3ccccc23)C(=O)N[C@@H](Cc2c[nH]cn2)C(=O)N2CCC[C@@H]2C(=O)N[C@H]1Cc1ccccc1` [JVA-3622] (cyclo(H[dP]F[dW])), the Ki at MOR (mu opioid receptor) was determined as 2500 ± 510 nM; in series [1], 667 ± 470 nM.
As for [D-Bip^4]CJ-15,208 [JVA-3667], the “selectivity of opioid antagonism (KOR vs. MOR and DOR agonists)” value (“selectivity of opioid antagonism” below) in series [5] is “selective for KOR”. Also, the KOR antagonism entry in [5] (i.c.v. administration) is “weak KOR antagonist”; in series [5] (oral (p.o.) administration) it was “only KOR antagonism”. Moreover, the “antinociception (agonist activity)” value in the series on mice [6] (i.c.v. administration) is on record as “agonist”.
Regarding `O=C1N[C@H](Cc2c[nH]c3ccccc23)C(=O)N[C@@H](Cc2ccccc2)C(=O)N2CCC[C@@H]2C(=O)N[C@H]1Cc1cccnc1` [JVA-3624] (cyclo(F[dP][3Pal][dW])), the KOR antagonism result in series [5] (i.c.v. administration) is “not KOR antagonism”. The Ki on MOR (mu opioid receptor) was found to be 191 ± 39 nM. The “antinociception ED50” value with mice [6] (i.c.v.) was 1.13 nmol. Moreover, in the series on mice [6] (i.c.v. administration), the “antinociception (agonist activity)” value was “exhibits antinociception”. In series [1], the “Selectivity (KOR/MOR)” value was 1/23 and the Ki is 8.34 ± 1.48 nM.
In the case of [D-hPhe^4]CJ-15,208 [JVA-3668], the KOR antagonism entry in series [5] (i.c.v. administration) is on record as “not KOR antagonist”. Moreover, the “antinociception (agonist activity)” value in the series on mice [6] (i.c.v. administration) is recorded as “agonist”.
For the compound `O=C1N[C@H](Cc2c[nH]c3ccccc23)C(=O)N[C@@H](Cc2ccccn2)C(=O)N2CCC[C@@H]2C(=O)N[C@H]1Cc1ccccc1` [JVA-3627] (cyclo([2Pal][dP]F[dW])), the Ki at MOR (mu opioid receptor) worked out at 2530 ± 460 nM. For the same compound, in series [1], the “Selectivity (KOR/MOR)” value is given as 1/43 and the Ki was 58.4 ± 9.3 nM.
In the case of `O=C1N[C@H](Cc2c[nH]c3ccccc23)C(=O)N[C@@H](Cc2cccnc2)C(=O)N2CCC[C@@H]2C(=O)N[C@H]1Cc1ccccc1` [JVA-3628] (cyclo([3Pal][dP]F[dW])), the locomotion result in series [7] is “does not produce hyperlocomotion like morphine, but instead can significantly decrease locomotion during the first hour”. In series [5], the “duration of KOR antagonism of centrally administered U50,488” value was in the range of 12 to 24 h; the “selectivity of opioid antagonism” value was “opioid antagonism is selective for KOR”; the “antagonism of centrally (i.c.v.) administered KOR agonist U50,488” value is recorded as “exhibits kappa opioid receptor (KOR) antagonism of centrally administered KOR agonist activity”. Besides, the KOR antagonism entry in series [5] (i.c.v. administration) was “selective KOR antagonism”. Further, the KOR antagonism result in series [5] (oral (p.o.) administration) was “antagonizing both peripherally and administered KOR agonist”. The Ki on MOR (mu opioid receptor) is 988 ± 146 nM. The respiration entry in [8] is on record as “decreases respiration during the first hour”. Further, in the series on mice [9], the “oral dose preventing stress-induced relapse of cocaine-seeking behavior” value stood at 30 mg/kg. For the same compound, in [1], the “Selectivity (KOR/MOR)” value is 1/24 and the Ki worked out at 41.8 ± 16.3 nM.
Regarding [D-His^4]CJ-15,208 [JVA-3670], the KOR antagonism result is listed as “not KOR antagonist” in series [5] (i.c.v. administration) and “only KOR antagonism” in series [5] (oral (p.o.) administration). Further, the “antinociception (agonist activity)” value with mice [6] (i.c.v. administration) is “agonist”.
Turning to `CC(C)[C@@H](CN1CC[C@@](C)(c2cccc(O)c2)[C@@H](C)C1)NC(=O)[C@H]1Cc2ccc(O)cc2CN1` [JDTic], the “duration of activity after a single dose” value in [3] (in vivo) is “weeks in some species”.
With [D-2′-Pal^4]CJ-15,208 [JVA-3671], the KOR antagonism entry in series [5] (i.c.v. administration) was “exhibits KOR antagonist activity”. Further, in the series on mice [6] (i.c.v. administration), the “antinociception (agonist activity)” value was “exhibits antinociception” and the “opioid receptor mediating the antinociception” value is “mediated by delta opioid receptors (DOR)”.
As for `O=C1N[C@H](Cc2c[nH]c3ccccc23)C(=O)N[C@@H](Cc2ccccc2)C(=O)N2CCC[C@@H]2C(=O)N[C@H]1Cc1ccccn1` [JVA-3626] (cyclo(F[dP][2Pal][dW])), the Ki on MOR (mu opioid receptor) was 1610 ± 590 nM. For the same compound, in series [1], the “Selectivity (KOR/MOR)” value is 1/20 and the Ki came to 82.3 ± 13.8 nM.
Regarding `O=C1N[C@H](Cc2c[nH]c3ccccc23)C(=O)N[C@@H](Cc2ccccc2)C(=O)N2CCC[C@@H]2C(=O)N[C@H]1Cc1ccncc1` [JVA-3625] (cyclo(F[dP][4Pal][dW])), the Ki on MOR (mu opioid receptor) worked out at 371 ± 81 nM. In series [1], the “Selectivity (KOR/MOR)” value was 1/12 and the Ki stood at 30.7 ± 6.8 nM.
As for `O=C1N[C@H](Cc2ccccc2)C(=O)N[C@@H](Cc2ccccc2)C(=O)N2CCC[C@@H]2C(=O)N[C@H]1Cc1ccccc1` [JVA-3620] (cyclo(F[dP]F[dF])), the locomotion result in series [7] is listed as “does not produce hyperlocomotion like morphine, but instead can significantly decrease locomotion during the first hour”. In addition, in series [5], the “duration of KOR antagonism of centrally administered U50,488” value was 6 to 12 h; the “selectivity of opioid antagonism” value is recorded as “selectively antagonized the KOR agonist U50,488, but not the mu opioid receptor agonist morphine or the delta opioid receptor antagonist SNC-80”; the “antagonism of centrally (i.c.v.) administered KOR agonist U50,488” value was “antagonized centrally (i.c.v.) administered KOR agonist”. Also, the KOR antagonism result in [5] (i.c.v. administration) is on record as “exhibited KOR antagonism”. Besides, the KOR antagonism entry in series [5] (oral (p.o.) administration) was “exhibited KOR antagonism”. Also, the “oral dose required to significantly antagonize centrally administered U50,488” value in series [5] (p.o.) was determined as 10 mg/kg. The Ki at MOR (mu opioid receptor) is 1100 ± 80 nM. Further, in series [8], the respiration entry is on record as “decreases respiration during the first hour”. In addition, the “oral dose preventing stress-induced relapse of cocaine-seeking behavior” value in the series with mice [9] was found to be 30 mg/kg. Also, in series [1], the “Selectivity (KOR/MOR)” value is on record as 1/38 and the Ki turned out to be 28.9 ± 4.9 nM.
Consider `O=C1N[C@H](Cc2c[nH]c3ccccc23)C(=O)N[C@@H](Cc2ccncc2)C(=O)N2CCC[C@@H]2C(=O)N[C@H]1Cc1ccccc1` [JVA-3629] (cyclo([4Pal][dP]F[dW])), for which the Ki at MOR (mu opioid receptor) was determined as 2740 ± 310 nM. For the same compound, in [1], the “Selectivity (KOR/MOR)” value was 1/86 and the Ki is 32 ± 4.1 nM.
